US7026313B2, “2-thia-1,6,8-triaza-naphthalene-2,2-dioxides are kinase inhibitors” (Warner-Lambert Company, priority 2002, dated 2006)

Legend:
neointima formation = conditions: intraluminal exposure of a denuded rat carotid artery; cited from earlier work
[1] = tested on: herpes simplex virus (HSV); conditions: related art (Schang et al.); cited from earlier work
cdk4/Cyclin D = cdk4/Cyclin D (Homo sapiens, UniProt P11802); assay: Assay for inhibition of cdk4/Cyclin D, 32P filter plate; format: biochemical; conditions: for IC50: cdk4, 25 μM ATP, retinoblastoma protein substrate, read-out: CYCK4 IC50
cdk4/Cyclin D, sequence (P11802 whole entry, species assumed): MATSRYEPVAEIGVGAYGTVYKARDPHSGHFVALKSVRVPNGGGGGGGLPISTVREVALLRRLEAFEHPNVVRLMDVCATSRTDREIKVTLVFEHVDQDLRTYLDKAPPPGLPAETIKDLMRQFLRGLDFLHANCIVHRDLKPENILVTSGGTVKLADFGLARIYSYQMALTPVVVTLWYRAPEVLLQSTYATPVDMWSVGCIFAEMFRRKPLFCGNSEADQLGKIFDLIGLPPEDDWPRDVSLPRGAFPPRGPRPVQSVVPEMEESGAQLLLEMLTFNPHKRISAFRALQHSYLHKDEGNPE
cdk4/Cyclin D, sequence (P24385 whole entry partner, species assumed): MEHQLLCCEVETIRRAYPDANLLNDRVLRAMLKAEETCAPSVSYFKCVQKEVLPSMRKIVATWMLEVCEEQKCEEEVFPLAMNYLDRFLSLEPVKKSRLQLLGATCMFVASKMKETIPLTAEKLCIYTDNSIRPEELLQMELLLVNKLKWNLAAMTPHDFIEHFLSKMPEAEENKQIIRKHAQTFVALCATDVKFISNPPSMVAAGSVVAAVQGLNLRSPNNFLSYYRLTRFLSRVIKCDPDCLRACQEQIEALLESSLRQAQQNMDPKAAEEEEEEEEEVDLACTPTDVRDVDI
Description: Assay for Inhibition of cdk4/Cyclin D
The cdk4 enzyme assay for IC50 determination and kinetic evaluation was performed as follows: 96-well filter plates (Millipore MADVN6550) were used. The total volume was 0.1 mL containing a final concentration of buffer A (20 mM TRIS (tris[hydroxymethyl]aminomethane) (pH 7.4), 50 mM NaCl, 1 mM dithiothreitol, 10 mM MgCl2), 25 μM ATP containing 0.25 μCi [^32P]ATP, 20 ng Cdk4, 1 μg retinoblastoma protein, and the test compound at appropriate dilutions in buffer A. Buffer A alone without added test compound was employed as a control for no inhibition. Buffer A containing excess EDTA was used to determine the level of background ^32P in the absence of enzyme activity. All components except the ATP were added to the wells, and the plate was placed on a plate mixer for 2 minutes. The reaction was started by adding [^32P]ATP, and the plate was incubated at 25° C. for 15 minutes. The reaction was terminated by addition of 0.1 mL 20% trichloroacetic acid (TCA). The plate was kept at 4° C. for at least 1 hour to allow the substrate to precipitate. The wells were then washed five times with 0.2 mL 10% TCA, and ^32P incorporation was determined with a beta plate counter (Wallac Inc., Gaithersburg, Md.).

cdk2/cyclin A = cdk2/cyclin A (Homo sapiens, UniProt P24941); assay: Assay for inhibition of cdk2 (cdk2/cyclin A), 32P filter plate; format: biochemical; conditions: retinoblastoma protein substrate, read-out: CYCK2A IC50
Description: (§1) Assay for Inhibition of cdk1 and cdk2
(§2) Cdk1 and cdk2 enzyme assays for IC50 determinations and kinetic evaluation were performed as follows. 96-well filter plates (Millipore MADVN6550) were used. The total volume of each well in the assay was 0.1 mL in Buffer A (20 mM TRIS (pH 7.4), 50 mM NaCl, 1 mM dithiothreitol, 10 mM MgCl2), to which was added […] containing 0.25 μCi [^32P]ATP, 20 ng enzyme (cdk2/cyclin E, cdk2/cyclin A, or cdk1/cyclin B), 1 μg retinoblastoma protein, and appropriate dilutions in Buffer A of the particular test compound. Buffer A alone without added test compound was employed as a control for no inhibition. Buffer A containing excess EDTA was used to determine the level of background ^32P in the absence of enzyme activity. All components except the ATP were added to the wells, and the plate was placed on a plate mixer for 2 minutes. The reaction was initiated by addition of [^32P]ATP, and the plate was incubated at 25° C. for 15 minutes. The reaction was terminated by addition of 0.1 mL 20% TCA. The plate was kept at 4° C. for at least 1 hour to allow the substrate to precipitate. The wells were then washed five times with 0.2 mL 10% TCA, and ^32P incorporation was determined with a beta plate counter (Wallac Inc., Gaithersburg, Md.). The IC50 of the test compound was determined using the median effect method (Chou, T-C and Talalay, P. Applications of the median effect principle for the assessment of low-dose risk of carcinogens and for the quantitation of synergism and antagonism of chemotherapeutic agents. In: New Avenues in Developmental Cancer Chemotherapy (Eds. Harrap, K. T. and Connors, T. A.), pp. 37–64. Academic Press, New York, 1987).

[2] = target: T1, mouse PDGF-β receptor tyrosine kinase (Mus musculus, UniProt P05622); assay: PDGF receptor (PDGFr) tyrosine kinase assay; format: biochemical; conditions: PDGFr enzyme lysate, Poly (4:1) glutamate-tyrosine substrate
T1 construct: amplify a fragment of DNA that codes for the intracellular tyrosine kinase domain; made in house; host or cells: SF9 insect cells (baculovirus); crude cell lysate used
T1 sequence (P05622 599-961 limits assumed): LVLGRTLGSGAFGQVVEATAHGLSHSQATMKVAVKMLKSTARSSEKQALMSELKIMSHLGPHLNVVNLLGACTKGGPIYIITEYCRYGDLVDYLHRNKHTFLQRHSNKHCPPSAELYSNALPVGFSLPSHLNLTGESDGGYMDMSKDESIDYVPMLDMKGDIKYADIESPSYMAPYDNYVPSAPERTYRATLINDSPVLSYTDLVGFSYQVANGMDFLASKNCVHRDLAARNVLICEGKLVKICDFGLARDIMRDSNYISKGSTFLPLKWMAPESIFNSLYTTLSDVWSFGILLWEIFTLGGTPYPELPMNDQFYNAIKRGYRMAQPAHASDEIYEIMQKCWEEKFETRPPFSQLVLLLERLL
Source text: (§3) For PDGF receptor (PDGFr) and FGF receptor (FGFr) tyrosine kinase assays, full-length cDNAs for the mouse PDGF-β and human FGF1(flg) receptor tyrosine kinases were obtained from J. Escobedo and prepared as described previously (Escobedo et al., J. Biol. Chem., 1988;262:1482–1487). PCR primers were designed to amplify a fragment of DNA that codes for the intracellular tyrosine kinase domain. The fragment was inserted into a baculovirus vector, cotransfected with AcMNPV DNA, and the recombinant virus was isolated. SF9 insect cells are infected with the virus to overexpress the protein, and the cell lysate was used for the assay.
(§4) PDGFr and FGFr enzyme assays were performed in 96-well plates (100 μL/incubation/well), and conditions were optimized to measure the incorporation of ^32P from [γ^32P]ATP into a glutamate-tyrosine co-polymer substrate. Briefly, to each well was added 82.5 μL incubation buffer containing 25 mM Hepes (pH 7.0), 150 mM NaCl, 0.1% Triton X-100, 0.2 mM PMSF, 0.2 mM Na3VO4, 10 mM MnCl2, and 750 μg/mL Poly (4:1) glutamate-tyrosine followed by 2.5 μL inhibitor and 5 μL enzyme lysate (7.5 μg/μL FGFr or 6.0 μg/μL PDGFr) to initiate the reaction. Following a 10-minute incubation at 25° C., […] [γ^32P]ATP (0.4 μCi plus 50 μM ATP) was added to each well, and samples were incubated for an additional 10 minutes at 25° C. The reaction was terminated by the addition of 100 μL 30% trichloroacetic acid (TCA) containing 20 mM sodium pyrophosphate and precipitation of material onto glass fiber mats (Wallac). Filters were washed three times with 15% TCA containing 100 mM sodium pyrophosphate, and the radioactivity retained on the filters was counted in a Wallac 1250 Betaplate reader. Nonspecific activity was defined as radioactivity retained on the filters following incubation of samples with buffer alone (no enzyme). Specific enzymatic activity (enzyme plus buffer) was defined as total activity minus nonspecific activity. The concentration of a compound that inhibited specific activity by 50% (IC50) was determined based on the inhibition curve.

[3] = target: T2, human FGF1(flg) receptor tyrosine kinase (Homo sapiens, UniProt P11362); assay: FGF receptor (FGFr) tyrosine kinase assay; format: biochemical; conditions: FGFr enzyme lysate, Poly (4:1) glutamate-tyrosine substrate
T2 construct: amplify a fragment of DNA that codes for the intracellular tyrosine kinase domain; made in house; host or cells: SF9 insect cells (baculovirus); crude cell lysate used
T2 sequence (P11362 478-767 limits assumed): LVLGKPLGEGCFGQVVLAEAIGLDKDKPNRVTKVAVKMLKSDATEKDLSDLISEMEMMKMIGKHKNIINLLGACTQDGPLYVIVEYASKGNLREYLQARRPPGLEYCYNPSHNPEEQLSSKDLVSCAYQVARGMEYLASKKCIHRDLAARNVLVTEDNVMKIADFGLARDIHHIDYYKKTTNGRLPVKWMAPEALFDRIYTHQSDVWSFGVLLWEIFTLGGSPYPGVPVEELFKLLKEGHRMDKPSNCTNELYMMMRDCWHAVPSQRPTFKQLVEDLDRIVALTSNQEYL
Source text: as §3, §4

cdk2/cyclin E = cdk2/cyclin E (Homo sapiens, UniProt P24941); assay: Assay for inhibition of cdk2 (cdk2/cyclin E), 32P filter plate; format: biochemical; conditions: retinoblastoma protein substrate, read-out: CYCK2E IC50
Description: as §1, §2

cdk1/cyclin B = cdk1/cyclin B (Homo sapiens, UniProt P06493); assay: Assay for inhibition of cdk1 (cdk1/cyclin B), 32P filter plate; format: biochemical; conditions: retinoblastoma protein substrate, read-out: CYCK1B IC50
cdk1/cyclin B, sequence (P06493 whole entry, species assumed): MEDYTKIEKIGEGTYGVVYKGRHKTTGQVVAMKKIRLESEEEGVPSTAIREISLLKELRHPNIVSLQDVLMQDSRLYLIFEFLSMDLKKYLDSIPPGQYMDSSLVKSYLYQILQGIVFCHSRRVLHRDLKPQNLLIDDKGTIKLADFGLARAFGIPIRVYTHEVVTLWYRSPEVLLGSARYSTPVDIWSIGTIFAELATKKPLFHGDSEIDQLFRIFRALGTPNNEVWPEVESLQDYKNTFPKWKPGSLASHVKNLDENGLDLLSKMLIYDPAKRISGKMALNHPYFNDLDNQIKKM
cdk1/cyclin B, sequence (P14635 whole entry partner, species assumed): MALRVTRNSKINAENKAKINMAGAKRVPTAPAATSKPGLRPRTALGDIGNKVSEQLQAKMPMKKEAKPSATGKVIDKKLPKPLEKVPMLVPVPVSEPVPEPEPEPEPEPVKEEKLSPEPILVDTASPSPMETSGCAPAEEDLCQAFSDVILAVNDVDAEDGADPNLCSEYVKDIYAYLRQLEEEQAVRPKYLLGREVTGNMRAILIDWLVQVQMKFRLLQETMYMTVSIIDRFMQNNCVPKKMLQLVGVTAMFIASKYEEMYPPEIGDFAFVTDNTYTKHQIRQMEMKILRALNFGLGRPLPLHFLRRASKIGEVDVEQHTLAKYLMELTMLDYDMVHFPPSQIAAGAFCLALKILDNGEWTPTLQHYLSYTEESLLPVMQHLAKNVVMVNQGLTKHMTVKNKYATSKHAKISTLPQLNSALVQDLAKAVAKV
Description: as §1, §2

SMILES | inhibition of neointima formation (neointima formation) | HSV replication [1] | IC50 (cdk4/Cyclin D) [nM] | IC50 (cdk2/cyclin A) [nM] | IC50 [2] [nM] | IC50 [3] [nM] | IC50 (cdk2/cyclin E) [nM] | IC50 (cdk1/cyclin B) [µM] | selectivity for Cdk4 over cdk1, cdk2, FGF and PDGF (cdk4/Cyclin D; conclusion from Table 2)
COc1ccc(CNc2nc(N(CCO)CCO)nc3c2ncn3C(C)C)cc1 [CVT-313] | greater than 80% |  |  |  |  |  |  |  | 
CC[C@H](CO)Nc1nc(NCc2ccccc2)c2ncn(C(C)C)c2n1 [roscovitine] |  | inhibited |  |  |  |  |  |  | 
CC1=Cc2cnc(Nc3ccc(N4CCNCC4)cc3)nc2N(C2CCCC2)S1(=O)=O [Compound 10, (1-Cyclopentyl-3-methyl-2,2-dioxo-1,2-dihydro-2l^6-thia-1,6,8-triaza-naphthalen-7-yl)-(4-piperazin-1-yl-phenyl)-amine] |  |  | 93 | 5450 | 290 | 575 | 26000 | 36 | 
CCC1=Cc2cnc(Nc3ccc(N4CCNCC4)cc3)nc2N(C2CCCC2)S1(=O)=O [Compound 14, (1-Cyclopentyl-3-ethyl-2,2-dioxo-1,2-dihydro-2l^6-thia-1,6,8-triaza-naphthalen-7-yl)-(4-piperazin-1-yl-phenyl)-amine] |  |  | 50 | 4000 | 216 | 1030 | > 5000 |  | 
CC1(C)CN(c2ccc(Nc3ncc4c(n3)N(C3CCCC3)S(=O)(=O)C=C4)cc2)CCN1 [Compound 6, (1-Cyclopentyl-2,2-dioxo-1,2-dihydro-2l^6-thia-1,6,8-triaza-naphthalen-7-yl)-[4-(3,3-dimethyl-piperazin-1-yl)-phenyl]-amine] |  |  | 1.3 | 294 |  |  | 600 | 3.6 | 
O=S1(=O)CCc2cnc(Nc3ccc(N4CCNCC4)cc3)nc2N1C1CCCC1 [Compound 16, (1-Cyclopentyl-2,2-dioxo-1,2,3,4-tetrahydro-2l^6-thia-1,6,8-triaza-naphthalen-7-yl)-(4-piperazin-1-yl-phenyl)-amine] |  |  | 45 | 930 |  |  | 930 | 4.14 | 
O=S1(=O)C=Cc2cnc(Nc3ccc(N4CCNCC4)cc3)nc2N1C1CCCC1 [Compound 4, (1-Cyclopentyl-2,2-dioxo-1,2-dihydro-2l^6-thia-1,6,8-triaza-naphthalen-7-yl)-(4-piperazin-1-yl-phenyl)-amine] |  |  | 5 | 106 | 1070 | 179 | 145 | 0.36 | specifically inhibits Cdk4
